{
  "source": "patent US12478617B2",
  "about": "“Lipidated peptide inhibitors of interleukin-23 receptor” (JANSSEN BIOTECH, INC., priority 2021, dated 2025)",
  "target": "T1, IL-23R (Homo sapiens, UniProt Q5VWK5)",
  "T1 construct": "HEK293 cells containing IL-23R, IL-12RP31 and a firefly luciferase reporter gene driven by a STAT-inducible promoter (Promega); host or cells: HEK293",
  "T1 sequence (Q5VWK5 24-629)": "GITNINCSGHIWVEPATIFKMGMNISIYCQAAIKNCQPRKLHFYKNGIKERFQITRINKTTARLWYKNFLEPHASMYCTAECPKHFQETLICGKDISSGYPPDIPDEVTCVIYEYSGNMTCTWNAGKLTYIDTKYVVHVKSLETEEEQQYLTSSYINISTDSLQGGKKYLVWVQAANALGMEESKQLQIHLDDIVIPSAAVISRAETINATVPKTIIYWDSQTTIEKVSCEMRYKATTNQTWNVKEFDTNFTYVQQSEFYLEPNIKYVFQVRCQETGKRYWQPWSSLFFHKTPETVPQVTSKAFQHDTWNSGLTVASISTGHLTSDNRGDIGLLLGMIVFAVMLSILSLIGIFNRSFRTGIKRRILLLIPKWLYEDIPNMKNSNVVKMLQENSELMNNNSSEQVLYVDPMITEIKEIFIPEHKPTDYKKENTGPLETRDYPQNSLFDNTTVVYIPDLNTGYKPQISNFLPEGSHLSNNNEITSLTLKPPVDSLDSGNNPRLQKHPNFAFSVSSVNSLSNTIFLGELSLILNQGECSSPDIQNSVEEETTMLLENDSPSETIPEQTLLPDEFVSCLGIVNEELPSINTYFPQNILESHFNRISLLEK",
  "assay": "IL23R Reporter Assay",
  "format": "cell-based",
  "description": "IL-23 binding to IL-23 receptors results in the activation of the Signal Transducer and Activator of Transcription 3 (STAT3) by phosphorylation and downstream signaling events. Accordingly. the ability of the inhibitors described herein to block IL-23 action can be assessed by monitoring the status of STAT3 activation in response to IL-23. This may be accomplished in reporter cell assays or in intact cells such as peripheral blood mononuclear cells (PBMCs).\nCompounds were serially diluted in 100% (v/v) DMSO) and plated using an Echo acoustic dispenser (Labcyte) into 1536-well non-treated black assay plates (Corning #9146). […] After 5 h at 37° C., 5% CO2, 95% relative humidity, cells were placed at 20° C. and treated with BioGlo reagent (Promega) according to the Manufacturer's instructions. Luminescence was measured on a Pherastar FSX (BMG LabTech).",
  "note": "Starred links: 1 amine or outer side, 2 acyl side, 3 side chain; linkers in the order of their positions; H or OH if unused. Positions of bridges follow the written chain, without caps; N, C: chain ends. Non-standard residues stand in square brackets, D forms with d. Residues, ends and D or L forms follow the SMILES beside them. Groups on a side chain read outwards from the residue. *: point of attachment. Decanoyl(10-O(3-COOH-Ph)) = O=C(O)c1cccc(OCCCCCCCCCC(=O)*)c1; Trp(7-Me) = Cc1cccc2c(C[C@H](N)C(=O)O)c[nH]c12; C18 diacid = O=C(O)CCCCCCCCCCCCCCCCC(=O)*; C16 diacid = O=C(O)CCCCCCCCCCCCCCC(=O)*; γGlu = O=C(O)[C@H](CCC(=O)[*:2])N[*:1]; 2Nal = N[C@@H](Cc1ccc2ccccc2c1)C(=O)O; AEF = NCCOc1ccc(C[C@H](N)C(=O)O)cc1; Stearoyl = CCCCCCCCCCCCCCCCCC(=O)*; 3Pal = N[C@@H](Cc1cccnc1)C(=O)O; Pen = CC(C)(S)[C@H](N)C(=O)O; Thp = NC1(C(=O)O)CCOCC1; AEEA = NCCOCCOCC(=O)O; Sar = CNCC(=O)O",
  "data": [
    {"smiles": "CC(=O)NCCCC[C@@H]1NC(=O)[C@H](Cc2c[nH]c3c(C)cccc23)NC(=O)[C@H]([C@@H](C)O)NC(=O)[C@H](CC(N)=O)NC(=O)[C@@H](NC(C)=O)C(C)(C)SSC(C)(C)[C@@H](C(=O)N[C@@H](Cc2ccc(OCCN)cc2)C(=O)N[C@@H](Cc2ccc3ccccc3c2)C(=O)NC2(C(=O)N[C@@H](CCCCNC(=O)COCCOCCNC(=O)COCCOCCNC(=O)CC[C@H](NC(=O)CCCCCCCCCOc3cccc(C(=O)O)c3)C(=O)O)C(=O)N[C@@H](CC(N)=O)C(=O)N[C@@H](Cc3cccnc3)C(=O)N(C)CC(N)=O)CCOCC2)NC1=O", "note": "[Example 97, MeCO-Pen*-N-T-7MeW-K(Ac)-Pen*-AEF-2Nal-THP-K(PEG2PEG2gEmXOH)-N-3Pya-Sar-CONH2] (Ac-[Pen]NT[Trp(7-Me)]K(Ac)[Pen][AEF][2Nal][Thp]K([AEEA-AEEA-γGlu-Decanoyl(10-O(3-COOH-Ph))])N[3Pal][Sar]-NH2; disulfide 1-6)", "values": [
      {"measurement": "IC50", "result": 0.0082, "unit": "nM"}
    ]},
    {"smiles": "CC(=O)NCCCC[C@@H]1NC(=O)[C@H](Cc2c[nH]c3c(C)cccc23)NC(=O)[C@H]([C@@H](C)O)NC(=O)[C@H](CC(N)=O)NC(=O)[C@@H](NC(=O)[C@@H](CCCNC(=N)N)NC(C)=O)C(C)(C)SSC(C)(C)[C@@H](C(=O)N[C@@H](Cc2ccc(OCCN)cc2)C(=O)N[C@@H](Cc2ccc3ccccc3c2)C(=O)NC2(C(=O)N[C@@H](CCCCNC(=O)COCCOCCNC(=O)COCCOCCNC(=O)CC[C@H](NC(=O)CCCCCCCCCCCCCCCCC(=O)O)C(=O)O)C(=O)N[C@@H](CC(N)=O)C(=O)N[C@@H](Cc3cccnc3)C(=O)N(C)CC(N)=O)CCOCC2)NC1=O", "note": "[Example 27, MeCO-r-Pen*-N-T-7MeW-K(Ac)-Pen*-AEF-2Nal-THP-K(PEG2PEG2gEC18OH)-N-3Pya-Sar-CONH2] (Ac-[dR][Pen]NT[Trp(7-Me)]K(Ac)[Pen][AEF][2Nal][Thp]K([AEEA-AEEA-γGlu-C18 diacid])N[3Pal][Sar]-NH2; disulfide 2-7)", "values": [
      {"measurement": "IC50", "result": 0.059, "unit": "nM"}
    ]},
    {"smiles": "CC(=O)NCCCC[C@@H]1NC(=O)[C@H](Cc2c[nH]c3c(C)cccc23)NC(=O)[C@H]([C@@H](C)O)NC(=O)[C@H](CC(N)=O)NC(=O)[C@@H](NC(=O)[C@@H](CCCNC(=N)N)NC(C)=O)C(C)(C)SSC(C)(C)[C@@H](C(=O)N[C@@H](Cc2ccc(OCCNC(=O)COCCOCCNC(=O)COCCOCCNC(=O)CC[C@H](NC(=O)CCCCCCCCCCCCCCC(=O)O)C(=O)O)cc2)C(=O)N[C@@H](Cc2ccc3ccccc3c2)C(=O)NC2(C(=O)N[C@@H](CCCCNC(C)=O)C(=O)N[C@@H](CC(N)=O)C(=O)N[C@@H](Cc3cccnc3)C(=O)N(C)CC(N)=O)CCOCC2)NC1=O", "note": "[Example 26, MeCO-r-Pen*-N-T-7MeW-K(Ac)-Pen*-AEF(PEG2PEG2gEC16OH)-2Nal-THP-K(Ac)-N-3Pya-Sar-CONH2] (Ac-[dR][Pen]NT[Trp(7-Me)]K(Ac)[Pen][AEF]([AEEA-AEEA-γGlu-C16 diacid])[2Nal][Thp]K(Ac)N[3Pal][Sar]-NH2; disulfide 2-7)", "values": [
      {"measurement": "IC50", "result": 0.025, "unit": "nM"}
    ]},
    {"smiles": "CC(=O)NCCCC[C@@H]1NC(=O)[C@H](Cc2c[nH]c3c(C)cccc23)NC(=O)[C@H]([C@@H](C)O)NC(=O)[C@H](CC(N)=O)NC(=O)[C@@H](NC(C)=O)C(C)(C)SSC(C)(C)[C@@H](C(=O)N[C@@H](Cc2ccc(OCCN)cc2)C(=O)N[C@@H](Cc2ccc3ccccc3c2)C(=O)NC2(C(=O)N[C@@H](CCCCNC(=O)COCCOCCNC(=O)COCCOCCNC(=O)[C@H]3CCCN3C(=O)[C@H]3CCCN3C(=O)[C@H]3CCCN3C(=O)CC[C@H](NC(=O)CCCCCCCCCCCCCCCCC(=O)O)C(=O)O)C(=O)N[C@@H](CC(N)=O)C(=O)N[C@@H](Cc3cccnc3)C(=O)N(C)CC(N)=O)CCOCC2)NC1=O", "note": "[Example 108, MeCO-Pen*-N-T-7MeW-K(Ac)-Pen*-AEF-2Nal-THP-K(PEG2PEG2pppgEC18OH)-N-3Pya-Sar-CONH2]", "values": [
      {"measurement": "IC50", "result": 0.15, "unit": "nM"}
    ]},
    {"smiles": "CC(=O)NCCCC[C@@H]1NC(=O)[C@H](Cc2c[nH]c3c(C)cccc23)NC(=O)[C@H]([C@@H](C)O)NC(=O)[C@H](CC(N)=O)NC(=O)[C@@H](NC(=O)[C@@H](CCCNC(=N)N)NC(C)=O)C(C)(C)SSC(C)(C)[C@@H](C(=O)N[C@@H](Cc2ccc(OCCN)cc2)C(=O)N[C@@H](Cc2ccc3ccccc3c2)C(=O)NC2(C(=O)N[C@@H](CCCCNC(=O)COCCOCCNC(=O)COCCOCCNC(=O)[C@@H]3CCCN3C(=O)[C@@H]3CCCN3C(=O)[C@@H]3CCCN3C(=O)CCCCCCCCCCCCCCCCC(=O)O)C(=O)N[C@@H](CC(N)=O)C(=O)N[C@@H](Cc3cccnc3)C(=O)N(C)CC(N)=O)CCOCC2)NC1=O", "note": "[Example 65, MeCO-r-Pen*-N-T-7MeW-K(Ac)-Pen*-AEF-2Nal-THP-K(PEG2PEG2PPPC18OH)-N-3Pya-Sar-CONH2] (Ac-[dR][Pen]NT[Trp(7-Me)]K(Ac)[Pen][AEF][2Nal][Thp]K([AEEA-AEEA-Pro-Pro-Pro-C18 diacid])N[3Pal][Sar]-NH2; disulfide 2-7)", "values": [
      {"measurement": "IC50", "result": 0.19, "unit": "nM"}
    ]},
    {"smiles": "CCCCCCCCCCCCCCCCCC(=O)N[C@@H](CCC(=O)NCCCC[C@@H](NC(C)=O)C(=O)N[C@@H]1C(=O)N[C@@H](CC(N)=O)C(=O)N[C@@H]([C@@H](C)O)C(=O)N[C@@H](Cc2c[nH]c3c(C)cccc23)C(=O)N[C@@H](CCCCNC(C)=O)C(=O)N[C@H](C(=O)N[C@@H](Cc2ccc(OCCN)cc2)C(=O)N[C@@H](Cc2ccc3ccccc3c2)C(=O)NC2(C(=O)N[C@@H](CCCCNC(C)=O)C(=O)N[C@@H](CC(N)=O)C(=O)N[C@@H](Cc3cccnc3)C(=O)N(C)CC(N)=O)CCOCC2)C(C)(C)SSC1(C)C)C(=O)O", "note": "[Example 68, MeCO-k(gEC18)-Pen*-N-T-7MeW-K(Ac)-Pen*-AEF-2Nal-THP-K(Ac)-N-3Pya-Sar-CONH2] (Ac-[dK]([γGlu-Stearoyl])[Pen]NT[Trp(7-Me)]K(Ac)[Pen][AEF][2Nal][Thp]K(Ac)N[3Pal][Sar]-NH2; disulfide 2-7)", "values": [
      {"measurement": "IC50", "result": 0.037, "unit": "nM"}
    ]},
    {"smiles": "CC(=O)NCCCC[C@@H]1NC(=O)[C@H](Cc2c[nH]c3c(C)cccc23)NC(=O)[C@H]([C@@H](C)O)NC(=O)[C@H](CC(N)=O)NC(=O)[C@@H](NC(C)=O)C(C)(C)SSC(C)(C)[C@@H](C(=O)N[C@@H](Cc2ccc(OCCN)cc2)C(=O)N[C@@H](Cc2ccc3ccccc3c2)C(=O)NC2(C(=O)N[C@@H](CCCCNC(=O)COCCOCCNC(=O)CC[C@H](NC(=O)CCCCCCCCCCCCCCC(=O)O)C(=O)O)C(=O)N[C@@H](CC(N)=O)C(=O)N[C@@H](Cc3cccnc3)C(=O)N(C)CC(N)=O)CCOCC2)NC1=O", "note": "[Example 34, MeCO-Pen*-N-T-7MeW-K(Ac)-Pen*-AEF-2Nal-THP-K(PEG2gEC16OH)-N-3Pya-Sar-CONH2] (Ac-[Pen]NT[Trp(7-Me)]K(Ac)[Pen][AEF][2Nal][Thp]K([AEEA-γGlu-C16 diacid])N[3Pal][Sar]-NH2; disulfide 1-6)", "values": [
      {"measurement": "IC50", "result": 0.065, "unit": "nM"}
    ]},
    {"smiles": "CC(=O)NCCCC[C@@H]1NC(=O)[C@H](Cc2c[nH]c3c(C)cccc23)NC(=O)[C@H]([C@@H](C)O)NC(=O)[C@H](CC(N)=O)NC(=O)[C@@H](NC(C)=O)C(C)(C)SSC(C)(C)[C@@H](C(=O)N[C@@H](Cc2ccc(OCCN)cc2)C(=O)N[C@@H](Cc2ccc3ccccc3c2)C(=O)NC2(C(=O)N[C@@H](CCCCNC(=O)COCCOCCNC(=O)COCCOCCNC(=O)CC[C@H](NC(=O)CCCCCCCCCCCCCCCCCCC(=O)O)C(=O)O)C(=O)N[C@@H](CC(N)=O)C(=O)N[C@@H](Cc3cccnc3)C(=O)N(C)CC(N)=O)CCOCC2)NC1=O", "note": "[Example 36, MeCO-Pen*-N-T-7MeW-K(Ac)-Pen*-AEF-2Nal-THP-K(PEG2PEG2gEC20OH)-N-3Pya-Sar-CONH2]", "values": [
      {"measurement": "IC50", "result": 0.14, "unit": "nM"}
    ]},
    {"smiles": "CC(=O)NCCCC[C@@H]1NC(=O)[C@H](Cc2c[nH]c3c(C)cccc23)NC(=O)[C@H]([C@@H](C)O)NC(=O)[C@H](CC(N)=O)NC(=O)[C@@H](NC(=O)[C@@H](CCCNC(=N)N)NC(=O)COCCOCCNC(=O)COCCOCCNC(=O)CC[C@H](NC(=O)CCCCCCCCCCCCCCC(=O)O)C(=O)O)C(C)(C)SSC(C)(C)[C@@H](C(=O)N[C@@H](Cc2ccc(OCCN)cc2)C(=O)N[C@@H](Cc2ccc3ccccc3c2)C(=O)NC2(C(=O)N[C@@H](CCCCNC(C)=O)C(=O)N[C@@H](CC(N)=O)C(=O)N[C@@H](Cc3cccnc3)C(=O)N(C)CC(N)=O)CCOCC2)NC1=O", "note": "[Example 24, HOC16gEPEG2PEG2-r-Pen*-N-T-7MeW-K(Ac)-Pen*-AEF-2Nal-THP-K(Ac)-N-3Pya-Sar-CONH2] ({C16 diacid-γGlu-AEEA-AEEA}-[dR][Pen]NT[Trp(7-Me)]K(Ac)[Pen][AEF][2Nal][Thp]K(Ac)N[3Pal][Sar]-NH2; disulfide 2-7)", "values": [
      {"measurement": "IC50", "result": 0.017, "unit": "nM"}
    ]}
  ]
}
